Measured values reported in paper PMC4775997, “Imidazopyridazine Inhibitors of Plasmodium falciparum Calcium-Dependent Protein Kinase 1 Also Target Cyclic GMP-Dependent Protein Kinase and Heat Shock Protein 90 To Kill the Parasite at Different Stages of Intracellular Development” (Antimicrobial Agents and Chemotherapy, 2016).
Where two headings read alike, the source gives them in different places.

Columns and labels:
3D7 PKG T618Q = experiment: microbe, parasite or virus in culture; assay type: cell-based, Plasmodium falciparum; conditions: for EC50: read-out: Parasite inhibition EC50, 3D7 PKG T618Q; for Ratio 3D7 PKG T618Q/3D7: Table S2
CDPK1 = CDPK1 (Plasmodium falciparum, UniProt P62344); experiment: biochemical; assay type: biochemical; conditions: read-out: Enzyme inhibition IC50, CDPK1
P. falciparum 3D7 [1] = experiment: Microscopic examination of Giemsa-stained smears (stage of action); conditions: for Stage of action (before or after DNA synthesis): Table S1, ring-stage parasites, 10x EC50 for 48 h; for Stage of action: ring stage parasites treated with 10 times the 96-h EC50 for 48 h
P. falciparum 3D7 [2] = experiment: SYBR green I growth assay, wild-type parasites; assay type: cell-based, Plasmodium falciparum; conditions: for EC5048/EC5096 ratio: Table 1
PfPKG = target: T1, PfPKG (Plasmodium falciparum, UniProt Q8I719); experiment: Microfluidic fluorescent shift assay of cGMP-dependent protein kinase activity; assay type: biochemical
T1 construct: plasmids (pTrcHisC) encoding full-length PfPKG and PfPKG T618Q with N-terminal His tags; His tag (N); made in house; host or cells: E. coli Rosetta2(DE3)

PfPKG T618Q = target: T2, PfPKG T618Q (Plasmodium falciparum, UniProt Q8I719, T618Q); experiment: biochemical; assay type: biochemical
T2 construct: plasmids (pTrcHisC) encoding full-length PfPKG and PfPKG T618Q with N-terminal His tags; His tag (N); made in house; host or cells: E. coli Rosetta2(DE3)

[3] = Table 2, SYBR green I, 96 h, single experiment, or mean (SD) of duplicate assays
[4] = SYBR green I, 48 h incubation, mean of three independent experiments (SD), read-out: EC50 after treatment for 48 h
[5] = SYBR green I, 96 h incubation, mean of three independent experiments (SD), read-out: EC50 after treatment for 96 h
[6] = Table 2, SYBR green I, 96 h, single experiment, or mean (SD) of duplicate assays, read-out: Parasite inhibition EC50, 3D7
[7] = Table S1, single experiment with duplicate samples, or mean of triplicate experiments (SD), read-out: EC50 48 hours
[8] = Table S1, single experiment with duplicate samples, or mean of triplicate experiments (SD), read-out: EC50 96 hours
[9] = Table S2, read-out: Enzyme inhibition IC50, PKG
[10] = Table S2, read-out: Enzyme inhibition IC50, PKG T618Q

T2 sequence (Q8I719 whole entry T618Q): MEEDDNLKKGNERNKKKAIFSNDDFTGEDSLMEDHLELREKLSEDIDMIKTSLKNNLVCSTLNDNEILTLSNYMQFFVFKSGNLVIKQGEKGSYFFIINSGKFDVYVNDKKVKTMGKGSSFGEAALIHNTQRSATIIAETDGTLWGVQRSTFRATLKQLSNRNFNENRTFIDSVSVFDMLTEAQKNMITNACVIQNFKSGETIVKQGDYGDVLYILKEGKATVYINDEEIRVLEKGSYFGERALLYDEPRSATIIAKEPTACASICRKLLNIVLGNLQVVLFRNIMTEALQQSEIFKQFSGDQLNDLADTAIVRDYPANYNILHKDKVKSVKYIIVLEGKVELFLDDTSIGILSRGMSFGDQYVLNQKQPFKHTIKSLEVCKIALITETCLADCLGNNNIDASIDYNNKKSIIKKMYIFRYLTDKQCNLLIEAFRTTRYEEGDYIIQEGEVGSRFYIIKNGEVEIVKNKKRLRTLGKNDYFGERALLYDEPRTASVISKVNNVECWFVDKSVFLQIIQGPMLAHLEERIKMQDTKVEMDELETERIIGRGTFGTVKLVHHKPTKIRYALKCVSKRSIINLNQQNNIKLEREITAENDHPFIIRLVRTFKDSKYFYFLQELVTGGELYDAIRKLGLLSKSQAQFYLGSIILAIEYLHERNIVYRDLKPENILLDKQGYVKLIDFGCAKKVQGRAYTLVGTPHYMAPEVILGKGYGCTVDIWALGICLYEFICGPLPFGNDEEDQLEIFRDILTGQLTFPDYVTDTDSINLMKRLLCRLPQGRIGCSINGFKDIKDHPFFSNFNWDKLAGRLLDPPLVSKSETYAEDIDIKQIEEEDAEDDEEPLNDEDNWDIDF
Sequence of CDPK1 (P62344 whole entry): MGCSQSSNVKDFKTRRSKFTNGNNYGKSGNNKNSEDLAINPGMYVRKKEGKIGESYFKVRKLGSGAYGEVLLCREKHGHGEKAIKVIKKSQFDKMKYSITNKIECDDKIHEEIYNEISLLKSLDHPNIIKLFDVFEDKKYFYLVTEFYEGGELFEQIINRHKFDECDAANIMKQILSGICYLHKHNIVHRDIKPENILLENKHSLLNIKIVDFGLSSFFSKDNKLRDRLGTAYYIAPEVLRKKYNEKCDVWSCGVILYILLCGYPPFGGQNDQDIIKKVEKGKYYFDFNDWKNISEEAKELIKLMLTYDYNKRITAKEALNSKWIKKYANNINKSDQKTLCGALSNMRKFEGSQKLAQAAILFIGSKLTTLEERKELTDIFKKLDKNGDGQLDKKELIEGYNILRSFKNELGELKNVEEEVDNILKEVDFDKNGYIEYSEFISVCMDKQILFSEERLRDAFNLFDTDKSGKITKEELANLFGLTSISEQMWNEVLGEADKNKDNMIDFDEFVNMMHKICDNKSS

Compound | 3D7 PKG T618Q/3D7 EC50 ratio (3D7 PKG T618Q; Table 2) | EC50 (3D7 PKG T618Q; [3]) [µM] | Ratio 3D7 PKG T618Q/3D7 (3D7 PKG T618Q) | IC50 (CDPK1; Table 2) [µM] | Stage of action (before or after DNA synthesis) (P. falciparum 3D7 [1]) | Stage of action (P. falciparum 3D7 [1]) | EC50 (P. falciparum 3D7 [2]; [4]) [µM] | EC50 (P. falciparum 3D7 [2]; [5]) [µM] | EC5048/EC5096 ratio (P. falciparum 3D7 [2]) | EC50 (P. falciparum 3D7 [2]; [6]) [µM] | ratio EC5048:EC5096 (P. falciparum 3D7 [2]; Table S1) | EC50 (P. falciparum 3D7 [2]; [7]) [µM] | EC50 (P. falciparum 3D7 [2]; [8]) [µM] | Selectivity PKG T618Q/PKG (PfPKG T618Q; Table S2) | IC50 (CDPK1; Table S2) [µM] | IC50 (PfPKG; [9]) [µM] | IC50 (PfPKG T618Q; [10]) [µM] | further results
Fc1cccnc1Nc1ncc(-c2cnc3ccc(NC4CCC(N5CCNCC5)CC4)nn23)cn1 (stereo not shown) [Compound 28] | 10.8 | 0.64 | 11 | 0.012 | late schizont (after) | Late schizont | 0.168 | 0.038 | 4.4 | 0.059 | 4.4 | 0.17 | 0.04 | 12100 | – | – | – | Stage of action (P. falciparum 3D7 [1]; listed as Compound 28): arrest parasites in late schizogony; EC5048/EC5096 ratio (P. falciparum 3D7 [2]; listed as Compound 28): less than 5; IC50 (PfPKG; read-out: Enzyme inhibition IC50, PKG): 0.003 µM; IC50 (PfPKG T618Q; Table 2, ATP at Km 90 μM, read-out: Enzyme inhibition IC50, PKG T618Q): 31.7 µM
CC(C)CCNc1ncc(-c2cnc3ccc(NC4CCN(C)C4)nn23)cn1 (stereo not shown) [Compound 31] | – | – | – | – | late schizont | Late schizont | 1.66 | 0.238 | 7.0 | – | 7.0 | 1.66 | 0.24 | 21 | 0.093 | 0.287 | 5.95 | –
CC(C)CNc1ncc(-c2cnc3ccc(NC4CCN(C)CC4)nn23)cn1 [Compound 44] | 2.0 | 0.477 | 2 | 0.065 | – | – | – | – | – | 0.236 | – | – | – | – | – | – | – | EC90 (P. falciparum 3D7 [2]; 3D7 parasites): 0.65 µM
NC1CCC(Nc2ccc3ncc(-c4cnc(Nc5ccccn5)c(F)c4)n3n2)CC1 (stereo not shown) [Compound 20] | 1.8 | – | 2 | 0.008 | trophozoite | Trophozoite | – | – | 2.1 | – | 2.1 | – | – | – | – | – | – | EC50 (3D7 PKG T618Q; Plasmodium falciparum, 3D7, 96 h): 0.386 µM; EC50 (P. falciparum 3D7 [2]; Plasmodium falciparum, 3D7, 48 h, read-out: EC50 48 hours): 0.3 µM; EC50 (P. falciparum 3D7 [2]; Plasmodium falciparum, 3D7, 48 h, read-out: EC50 after treatment for 48 h): 0.298 µM; EC50 (P. falciparum 3D7 [2]; Plasmodium falciparum, 3D7, 96 h, read-out: EC50 96 hours): 0.14 µM; EC50 (P. falciparum 3D7 [2]; Plasmodium falciparum, 3D7, 96 h, read-out: EC50 after treatment for 96 h): 0.142 µM; EC50 (P. falciparum 3D7 [2]; Plasmodium falciparum, 3D7, 96 h, read-out: Parasite inhibition EC50, 3D7): 0.21 µM; IC50 (PfPKG): 0.012 µM; IC50 (PfPKG T618Q): 15.3 µM
CN(C)C1CCN(c2ccc3ncc(-c4cnc(Nc5ncccc5F)nc4)n3n2)C1 (stereo not shown) [Compound 35] | – | – | – | – | late schizont | Late schizont | > 1000 | 0.809 | >1,000 | – | – | – | 0.81 | 10653 | 0.017 | 0.05 | 528 | –
